In brackets after ≈: the same amount, converted by molar mass.
Experiments:
Milling of Form A = format: physicochemical; conditions: 2 min milling (5000 RPM); initial and repeat runs
Procedure: Compound 3 Form A material was milled using a Precellys® Evolution SUPER Homogenizer. Approximately 50 mg of Compound 3 Form A was weighed into 2×plastic 2 mL bead mill vials and 5×2.4 […] metal beads were placed into each vial. Sample 1 was milled using the following: RPM=5000; Cycles=2×60 seconds; Pause=10 seconds (between cycles). Sample 2 was milled using the above method but 5×60 seconds cycles instead of2×60 seconds. After milling, a sub-sample was taken from each and analyzed by XRPD and PLM. The above procedure was repeated and the resulting samples were analyzed by XRPD and DSC analysis.

[1] = Solubility in selected media (FaSSIF, FeSSIF, FaSSGF, pH 4 citrate, pH 6.8 phosphate); format: physicochemical
Procedure: Solubility within selected media (FaSSIF, FeSSIF, FaSSGF, pH 4 citrate and pH 6.8 phosphate) was measured to be <0.01 mg/mL.
The pH 4 citrate buffer was prepared by dissolving sodium citrate (987 mg) and citric acid (1.28 g) in 100 mL H2O. The pH was adjusted to 4. The pH 6.8 phosphate buffer was prepared by dissolving dibasic sodium phosphate dihydrate (873 mg) and monobasic sodium phosphate monohydrate (708 mg) in 100 mL H2O. The pH was adjusted to 6.8. The FaSSIF media was prepared with sodium hydroxide (108 mg), sodium chloride (1.55 g) and monobasic sodium phosphate dihydrate (1.12 g) in H2O (0.25 L) and the pH adjusted to 6.5. FaSSIF/FeSSIF/FaSSGF (0.56 g) was dissolved in the buffer and mixed until opalescent. The FeSSIF media was prepared by dissolving sodium hydroxide (1.01 g), sodium chloride (2.96 g) and glacial acetic acid (2.97 g) in H2O (0.25 L) and the pH adjusted to pH 5. FaSSIF/FeSSIF/FaSSGF (2.81 g) was dissolved in the buffer and thoroughly mixed. The FaSSGF media was prepared by dissolving FaSSIF/FeSSIF/FaSSGF (0.06 g) in a solution of sodium chloride (2.00 g) dissolved in H2O (1 L) and mixing thoroughly.

[2] = Storage stability of Compound 3 forms (80° C., 40° C./75% RH, 25° C./60% RH, ambient); format: physicochemical
[3] = Solvent experiments (solubility, Example 3); format: physicochemical
[4] = Caco2 permeability and efflux ratio; format: in vitro ADME; conditions: human, Caco-2; Caco2; read-out: Efflux ratio (B-A/A-B)
Caco2 = Caco2 permeability and efflux ratio; format: in vitro ADME; conditions: A-B
[5] = Dose number and BCS classification; format: physicochemical
[6] = Polymorph study: temperature cycling; format: physicochemical
Procedure: Approximately 960 mg of Compound 3 Form A was weighed into a 20 mL glass vial and dissolved using 12 mL 1,4-dioxane. 0.5 mL of the solution was then dispensed into twenty-four 1.5 mL HPLC glass vials (approx. 40 mg per vial). The Compound 3 Form A solutions were then frozen (at −50° C.) and dried by lyophilization using a Lablyo mini freeze drier. Post-lyophilization, a sub-sample was taken and analyzed by XRPD. Material was successfully rendered amorphous by lyophilization.
An appropriate volume of solvent (solvent systems are detailed in Table 17) was added to lyophilized solids. The samples were temperature cycled between ambient and 40° C. (4 hour cycles) for around 72 hours. Observations were made after 72 hours temperature cycling. Further solvent was added to the samples to produce a mobile slurry and slurries were agitated at 40° C. for approximately 18 additional hours. A sub-sample of solid (where applicable) was analyzed by XRPD. Samples were heated using a heat gun to aid dissolution to ensure saturated solutions were produced. Saturated solutions were syringe filtered to remove any potential seed material (as a precaution) and divided between three different crystallization conditions: cooling, evaporation, and anti-solvent addition (volumes of saturated solutions per condition can be found in Table 17).

[7] = Process for the formation of Form J: XRPD result after each step (Table 22); format: physicochemical
Procedure: A polymorph study was completed for Form J. The production of Form J was completed by temperature cycling amorphous Compound 3 in acetronitrile (Form B) with drying the material under ambient conditions for about 24 hours.

[8] = Interconversion experiments: competitive slurries (Example 2, Table 6); format: physicochemical; conditions: Forms A and G vs Form B, ethyl acetate, ambient and approximately 50° C.
Procedure: A solution of Compound 3 and solvent/solvent system of interest was prepared. Solids persisted in solution. The samples were placed onto a stir plate at ambient (RT) or elevated (ET) temperatures. The samples were monitored to ensure that solids persisted during the slurry process. The solids were collected via vacuum filtration and dried under ambient conditions. […] At ambient temperature, Forms B and M are both present after almost a week of slurrying.

[9] = Polarized light microscopy (PLM); format: physicochemical; conditions: Table 27A
Procedure: The presence of crystallinity (birefringence) was determined using an Olympus BX50 microscope, equipped with cross-polarizing lenses and a Motic camera. Images were captured using Motic Images Plus 2.0. All images were recorded using the 20×objective, unless otherwise stated. All samples were prepared using silicone oil and covered with a cover slip before PLM analysis was completed.

For `CC(=O)c1nn(CC(=O)N2[C@H](C(=O)Nc3nc(Br)ccc3C)C[C@@]3(C)C[C@@H]23)c2ccc(-c3cnc(C)nc3)cc12` [Compound 3 Form A], the “Milling: XRPD” value (Milling of Form A) was “Amorphous”, the “XRPD Results after stirring in media” value ([1]; FaSSGF) was “Form A” and the solubility ([1]; FaSSGF) was less than 10 µg/mL. For the same molecule, the solubility ([1]; FaSSGF, fassgf or other biorelevant, thermodynamic from solid, read-out: Solubility: HPLC Result) was less than 10 µg/mL, the “XRPD Results after stirring in media” value ([1]; FaSSIF) was “Form A” and the solubility ([1]; FaSSIF) was less than 10 µg/mL. The solubility ([1]; FaSSIF, pH 6.5, fassif, thermodynamic from solid, read-out: Solubility: HPLC Result) was less than 10 µg/mL, the “XRPD Results after stirring in media” value ([1]; FeSSIF) was “Form A” and the solubility ([1]; FeSSIF) was less than 10 µg/mL. It also gave a solubility ([1]; FeSSIF, pH 5, fessif, thermodynamic from solid, read-out: Solubility: HPLC Result) of less than 10 µg/mL, a solubility ([1]; aqueous buffer, thermodynamic from solid, FaSSIF, FeSSIF, FaSSGF, pH 4 citrate and pH 6.8 phosphate, read-out: Solubility within selected media) of less than 10 µg/mL and a solubility ([1]; aqueous buffer, thermodynamic from solid, pH 6.8 phosphate buffer, read-out: Solubility: HPLC Result) of less than 10 µg/mL. The solubility ([1]; pH 4) was “Not detected”, the “Solubility: HPLC Result” value ([1]; pH 4 citrate buffer) was “Not detected” and the “XRPD Results after stirring in media” value ([1]; pH 4 citrate buffer) was “Form A”. The “XRPD Results after stirring in media” value ([1]; pH 6.8 phosphate buffer) was “Form A”, the solubility ([1]; pH 6.8 phosphate buffer, pH 6.8, aqueous buffer, thermodynamic from solid, read-out: Solubility) was less than 10 µg/mL and the “1 week stability: 25° C./60% RH XRPD (uncapped)” value ([2]; 1 week, WC = weakly crystalline) was “WC Form A”. The “Stability: form by XRPD after storage” value ([2]; 25° C./60% RH, uncapped vial) was “weakly crystalline Form A”.
For `CC(=O)c1nn(CC(=O)N2[C@H](C(=O)Nc3nc(Br)ccc3C)C[C@@]3(C)C[C@@H]23)c2ccc(-c3cnc(C)nc3)cc12` [Compound 3, (1R,3S,5R)-2-(2-(3-acetyl-5-(2-methylpyrimidin-5-yl)-1H-indazol-1-yl)acetyl)-N-(6-bromo-3-methylpyridin-2-yl)-5-methyl-2-azabicyclo[3.1.0]hexane-3-carboxamide], the solubility ([3]; DMSO, organic solvent or mixture) was 104000 µg/mL (≈ 173000 µM), the solubility ([3]; UPLC Water) was 1040 µg/mL (≈ 1730 µM) and the solubility ([3]; acetone, organic solvent or mixture) was 34300 µg/mL (≈ 56900 µM). It also gave a solubility ([3]; ethanol, organic solvent or mixture) of 8380 µg/mL (≈ 13900 µM), a solubility ([3]; heptane, organic solvent or mixture) of 865 µg/mL (≈ 1440 µM) and an efflux ratio [4] of 2.2. For the same molecule, the “Caco2: A-B” value (Caco2) was “Caco2: A-B ~17 × 10^−6 cm/s”, the BCS class [5] was “BCS II compound” and the “Dose Number” value ([5]; for 100 mg dose) was “Dose Number for 100 mg dos 3-7”. For the same molecule, the “Crystallization technique: Maturation” value ([6]; 1,4-Dioxane) was “Clear solution”, the “Crystallization technique: Maturation” value ([6]; 1-Butanol) was “Form A” and the “Crystallization technique: Maturation” value ([6]; 2-Methyl Tetrahydrofuran) was “Form A”. The “Crystallization technique: Maturation” value ([6]; 2-Propanol) was “Form A”, the “Crystallization technique: Maturation” value ([6]; 40% Ethanol / 60% Water (% v/v) calc. aw = 0.7) was “Pattern N” and the “Crystallization technique: Maturation” value ([6]; 50% 2-Propanol / 50% Heptane (% v/v), WC = weakly crystalline) was “Form A (WC)”. For the same molecule, the “Crystallization technique: Maturation” value ([6]; 50% Acetonitrile / 50% Water (% v/v) calc. aw = 0.9) was “Clear solution”, the “Crystallization technique: Maturation” value ([6]; 50% Ethanol / 50% Heptane (% v/v)) was “Amorphous” and the “Crystallization technique: Maturation” value ([6]; 70% 2-Propanol / 30% Heptane (% v/v), WC = weakly crystalline) was “Form B (WC)”. For the same molecule, the “Crystallization technique: Maturation” value ([6]; 70% 2-Propanol / 30% Water (% v/v) aw = 0.8) was “Form A”, the “Crystallization technique: Maturation” value ([6]; 95% 2-Propanol / 5% Heptane (% v/v)) was “Form A” and the “Crystallization technique: Maturation” value ([6]; 95% Heptane / 5% 2-Propanol (% v/v), WC = weakly crystalline) was “Form A (WC)”. The “Crystallization technique: Maturation” value ([6]; 95% Methanol / 5% Water (% v/v) calc. aw = 0.2) was “Amorphous”, the “Crystallization technique: Maturation” value ([6]; Acetone) was “Form B” and the “Crystallization technique: Maturation” value ([6]; Acetonitrile) was “Form J”. The “Crystallization technique: Maturation” value ([6]; Ethanol) was “Amorphous”, the “Crystallization technique: Maturation” value ([6]; Ethyl Acetate (dry)) was “Amorphous” and the “Crystallization technique: Maturation” value ([6]; Methanol) was “Pattern O”. The “Crystallization technique: Maturation” value ([6]; Methylethyl Ketone) was “Form A”, the “Crystallization technique: Maturation” value ([6]; Methylisobutyl Ketone, WC = weakly crystalline) was “Form A (WC)” and the “Crystallization technique: Maturation” value ([6]; Tetrahydrofuran) was “Clear solution”. The “Crystallization technique: Maturation” value ([6]; Toluene) was “Amorphous”, the “Crystallization technique: Maturation” value ([6]; n-Heptane) was “Amorphous” and the “Crystallization technique: Maturation” value ([6]; tert-Butylmethyl Ether) was “Amorphous”. The XRPD result ([7]; Step 1: Lyophilization) was “Amorphous”, the XRPD result ([7]; Step 5: Re-slurry in 5 mL acetonitrile) was “Form J” and the XRPD result ([7]; Step 8: Re-slurry in 1.5 mL acetonitrile 18 hours) was “Form J”. The XRPD result ([7]; Step 11: Re-slurry 4 ml acetonitrile 18 hours) was “Form J”, the XRPD result ([7]; Step 12: Air drying 2, 5 and 24 hours) was “Form J” and the XRPD result ([7]; Step 13: After 5 days storage under ambient conditions) was “Amorphous”. The XRPD result ([7]; Step 14: Re-slurry 4 ml acetonitrile 18 hours) was “Form J”, the XRPD result ([7]; Step 15: Isolation using Buchner funnel (10-15 seconds on filter bed)) was “Amorphous” and the XRPD result ([7]; Step 16: Re-slurry 4 ml acetonitrile 4 hours) was “Form J”. For the same molecule, the XRPD result ([7]; Step 17: Isolation using centrifuge filtration) was “Form J” and the XRPD result ([7]; Step 18: Ambient drying 18 hours) was “Form J”.
For `CC(=O)c1nn(CC(=O)N2[C@H](C(=O)Nc3nc(Br)ccc3C)C[C@@]3(C)C[C@@H]23)c2ccc(-c3cnc(C)nc3)cc12` [Form B], the solubility ([1]; FaSSGF) was less than 10 µg/mL, the solubility ([1]; FaSSIF) was less than 10 µg/mL and the solubility ([1]; FeSSIF) was less than 10 µg/mL. The “Solubility in selected media” value ([1]; pH 4, pH 6.8, FaSSIF, FeSSIF and FaSSGF media) was “poorly soluble”, the “Relative stability in competitive slurry” value [8] was “more stable form” and the PLM [9] was “Birefringent rods”.
